Source: publication PMC5218480 (PLoS ONE, 2017)

Test system: MV-4-11 cells
Assay: Gene expression microarray analysis (Affymetrix PrimeView) and GSEA
Format: cell-based, human
Set-up: RFU PODN (11730768_x_at) / Fold change /veh PODN (11730768_x_at) / RFU LINC00158 (11744669_a_at) / Fold change /veh LINC00158 (11744669_a_at) / RFU DUSP10 (11751237_a_at) / Fold change /veh DUSP10 (11751237_a_at) / RFU ID3 (11757404_x_at) / Fold change /veh ID3 (11757404_x_at) / RFU PLEKHG5 (11737974_s_at) / Fold change /veh PLEKHG5 (11737974_s_at) / RFU LRRC4B (11730491_at) / Fold change /veh LRRC4B (11730491_at) / RFU GIMAP4 (11747438_a_at) / Fold change /veh GIMAP4 (11747438_a_at) / RFU KRT8 (11758183_x_at) / Fold change /veh KRT8 (11758183_x_at) / RFU CNN1 (11734310_a_at) / Fold change /veh CNN1 (11734310_a_at) / RFU VPS37D (11726825_at) / Fold change /veh VPS37D (11726825_at) / RFU C10orf10 (11716522_x_at) / Fold change /veh C10orf10 (11716522_x_at) / RFU KIR2DL2 /// KIR2DL4 /// KIR2DL5A /// KIR2DL5B /// KIR2DS1 /// KIR2DS2 /// KIR2DS3 /// KIR2DS4 /// KIR3DL3 /// KIR3DL3 /// KIR3DS1 (11738374_at) / Fold change /veh KIR2DL2 /// KIR2DL4 /// KIR2DL5A /// KIR2DL5B /// KIR2DS1 /// KIR2DS2 /// KIR2DS3 /// KIR2DS4 /// KIR3DL3 /// KIR3DL3 /// KIR3DS1 (11738374_at) / RFU C1QL1 (11718748_at) / Fold change /veh C1QL1 (11718748_at) / RFU TMPRSS4 (11747572_a_at) / Fold change /veh TMPRSS4 (11747572_a_at) / RFU HAMP (11756126_x_at) / Fold change /veh HAMP (11756126_x_at) / RFU RNFT2 (11725882_a_at) / Fold change /veh RNFT2 (11725882_a_at) / RFU NR4A2 (11747474_a_at) / Fold change /veh NR4A2 (11747474_a_at) / RFU ABCC12 (11746883_a_at) / Fold change /veh ABCC12 (11746883_a_at) / RFU TMEM136 (11760407_x_at) / Fold change /veh TMEM136 (11760407_x_at) / RFU CLDN22 /// WWC2 (11732394_at) / Fold change /veh CLDN22 /// WWC2 (11732394_at) / RFU HLA-DPB1 (11760878_x_at) / Fold change /veh HLA-DPB1 (11760878_x_at) / RFU SPINT1 (11716480_a_at) / Fold change /veh SPINT1 (11716480_a_at) / RFU GAP43 (11754022_s_at) / Fold change /veh GAP43 (11754022_s_at) / RFU A4GNT (11735810_at) / Fold change /veh A4GNT (11735810_at) / RFU PRB3 (11715151_x_at) / Fold change /veh PRB3 (11715151_x_at) / RFU TUBB4B (11761932_at) / Fold change /veh TUBB4B (11761932_at) / RFU CAPN14 (11732068_a_at) / Fold change /veh CAPN14 (11732068_a_at) / RFU TMCC2 (11721928_a_at) / Fold change /veh TMCC2 (11721928_a_at) / RFU IRGQ (11745062_a_at) / Fold change /veh IRGQ (11745062_a_at) / RFU FAM174B (11720279_a_at) / Fold change /veh FAM174B (11720279_a_at) / RFU TMPRSS4 (11748680_a_at) / Fold change /veh TMPRSS4 (11748680_a_at) / RFU FAM212B (11763350_a_at) / Fold change /veh FAM212B (11763350_a_at) / RFU PLEKHG5 (11743358_a_at) / Fold change /veh PLEKHG5 (11743358_a_at) / RFU ZSCAN30 (11745921_a_at) / Fold change /veh ZSCAN30 (11745921_a_at) / RFU CMKLR1 (11741424_a_at) / Fold change /veh CMKLR1 (11741424_a_at) / RFU LOC101060620 /// MAPK8IP1 (11723275_at) / Fold change /veh LOC101060620 /// MAPK8IP1 (11723275_at) / RFU SPTSSB (11747773_x_at) / Fold change /veh SPTSSB (11747773_x_at) / RFU PRSS12 (11739890_at) / Fold change /veh PRSS12 (11739890_at) / RFU BIN1 (11741810_x_at) / Fold change /veh BIN1 (11741810_x_at) / RFU WNT11 (11732464_a_at) / Fold change /veh WNT11 (11732464_a_at) / RFU C10orf10 (11716521_a_at) / Fold change /veh C10orf10 (11716521_a_at) / RFU C5orf56 (11738089_at) / Fold change /veh C5orf56 (11738089_at) / RFU CYB561 (11721691_x_at) / Fold change /veh CYB561 (11721691_x_at) / RFU ANKRD19P (11752326_a_at) / Fold change /veh ANKRD19P (11752326_a_at) / RFU OR2T12 /// OR2T33 /// OR2T8 (11738714_s_at) / Fold change /veh OR2T12 /// OR2T33 /// OR2T8 (11738714_s_at) / RFU VCAN (11748164_a_at) / Fold change /veh VCAN (11748164_a_at) / RFU JSRP1 (11732532_at) / Fold change /veh JSRP1 (11732532_at) / RFU KRTAP10-11 (11738290_x_at) / Fold change /veh KRTAP10-11 (11738290_x_at) / RFU MYO3A (11730013_a_at) / Fold change /veh MYO3A (11730013_a_at) / RFU EBF3 (11725865_a_at) / Fold change /veh EBF3 (11725865_a_at) / RFU CAMK2N1 (11719241_x_at) / Fold change /veh CAMK2N1 (11719241_x_at) / RFU C5orf56 (11738088_a_at) / Fold change /veh C5orf56 (11738088_a_at) / RFU OLFML3 (11715873_a_at) / Fold change /veh OLFML3 (11715873_a_at) / RFU LOC100653217 /// NTM (11731650_a_at) / Fold change /veh LOC100653217 /// NTM (11731650_a_at) / RFU MAPK11 (11762145_a_at) / Fold change /veh MAPK11 (11762145_a_at) / RFU FIZ1 (11724087_x_at) / Fold change /veh FIZ1 (11724087_x_at) / RFU OASL (11726364_x_at) / Fold change /veh OASL (11726364_x_at) / RFU SOX15 (11748057_x_at) / Fold change /veh SOX15 (11748057_x_at) / RFU CD79A (11719716_a_at) / Fold change /veh CD79A (11719716_a_at) / RFU HIST1H1D (11736915_at) / Fold change /veh HIST1H1D (11736915_at) / RFU CASKIN2 (11723855_a_at) / Fold change /veh CASKIN2 (11723855_a_at) / RFU LOC730098 (11760151_x_at) / Fold change /veh LOC730098 (11760151_x_at) / RFU OR4N2 (11742367_at) / Fold change /veh OR4N2 (11742367_at) / RFU PRRT2 (11749266_a_at) / Fold change /veh PRRT2 (11749266_a_at) / RFU SNX32 (11753110_a_at) / Fold change /veh SNX32 (11753110_a_at) / RFU CDHR5 (11726645_a_at) / Fold change /veh CDHR5 (11726645_a_at) / RFU RCAN1 (11760418_a_at) / Fold change /veh RCAN1 (11760418_a_at) / RFU FAM167A (11723789_a_at) / Fold change /veh FAM167A (11723789_a_at) / RFU FAM26E (11764081_at) / Fold change /veh FAM26E (11764081_at) / RFU ISYNA1 (11749810_s_at) / Fold change /veh ISYNA1 (11749810_s_at) / RFU ACY1 (11761880_at) / Fold change /veh ACY1 (11761880_at) / RFU 11764098_at / Fold change /veh 11764098_at / RFU SAMD14 (11745864_x_at) / Fold change /veh SAMD14 (11745864_x_at) / RFU NPB (11741838_a_at) / Fold change /veh NPB (11741838_a_at) / RFU TMPRSS6 (11731388_a_at) / Fold change /veh TMPRSS6 (11731388_a_at) / RFU KRTAP10-2 (11738614_at) / Fold change /veh KRTAP10-2 (11738614_at) / RFU ARHGAP8 /// PRR5-ARHGAP8 (11727945_x_at) / Fold change /veh ARHGAP8 /// PRR5-ARHGAP8 (11727945_x_at) / RFU KRTAP5-7 /// NADSYN1 (11734609_at) / Fold change /veh KRTAP5-7 /// NADSYN1 (11734609_at) / RFU RASL12 (11751679_a_at) / Fold change /veh RASL12 (11751679_a_at) / RFU CDKN2B (11736163_a_at) / Fold change /veh CDKN2B (11736163_a_at) / RFU PRF1 (11729649_at) / Fold change /veh PRF1 (11729649_at) / RFU, ZNF638 /// ZNF638-IT1 / Fold change vs veh, ZNF638 /// ZNF638-IT1 / RFU, PANK3 / Fold change vs veh, PANK3 / RFU, SH3YL1 / Fold change vs veh, SH3YL1 / RFU, ZEB2 / Fold change vs veh, ZEB2 / RFU, NRIP1 / Fold change vs veh, NRIP1 / RFU, PTTG1IP / Fold change vs veh, PTTG1IP / RFU, CAPN2 / Fold change vs veh, CAPN2 / RFU, MED14 / Fold change vs veh, MED14 / RFU, SNORA58 / Fold change vs veh, SNORA58 / RFU, C1orf63 / Fold change vs veh, C1orf63 / RFU, LRRFIP1 / Fold change vs veh, LRRFIP1 / RFU, NDUFAF7 / Fold change vs veh, NDUFAF7 / RFU, SLC12A2 / Fold change vs veh, SLC12A2 / RFU, IBTK / Fold change vs veh, IBTK / RFU, ESF1 / Fold change vs veh, ESF1 / Fold change vs veh, TMEM50B / RFU, TAOK1 / Fold change vs veh, TAOK1 / RFU, ACBD3 / Fold change vs veh, ACBD3 / RFU, TMA16 / Fold change vs veh, TMA16 / RFU, RWDD3 / Fold change vs veh, RWDD3 / RFU, BCAT1 / Fold change vs veh, BCAT1 / RFU, EDEM3 / Fold change vs veh, EDEM3 / RFU, TMEM33 / Fold change vs veh, TMEM33 / RFU, WDR75 / Fold change vs veh, WDR75 / RFU, AHCTF1 / Fold change vs veh, AHCTF1 / RFU, TFRC / Fold change vs veh, TFRC / RFU, ZDHHC17 / Fold change vs veh, ZDHHC17 / RFU, NOM1 / Fold change vs veh, NOM1 / RFU, ARL8B / Fold change vs veh, ARL8B / RFU, ZBTB11 / Fold change vs veh, ZBTB11 / RFU, TAMM41 / Fold change vs veh, TAMM41 / RFU, KIAA1704 /// LOC100996395 / Fold change vs veh, KIAA1704 /// LOC100996395 / RFU, ING1 / Fold change vs veh, ING1 / RFU, TRMT61B / Fold change vs veh, TRMT61B / RFU, FUBP3 / Fold change vs veh, FUBP3 / RFU, TP53 / Fold change vs veh, TP53 / RFU, TNKS2 / Fold change vs veh, TNKS2 / RFU, ZFP14 / Fold change vs veh, ZFP14 / RFU, ACTR2 / Fold change vs veh, ACTR2 / RFU, PPP3R1 / Fold change vs veh, PPP3R1 / RFU, PIK3R1 / Fold change vs veh, PIK3R1 / RFU, HNRNPA1 / Fold change vs veh, HNRNPA1 / RFU, RNF170 / Fold change vs veh, RNF170 / RFU, ZNF28 / Fold change vs veh, ZNF28 / RFU, RNGTT / Fold change vs veh, RNGTT / RFU, OGT / Fold change vs veh, OGT / RFU, BRD1 / Fold change vs veh, BRD1 / RFU, MARS / Fold change vs veh, MARS / RFU, ZNF655 / Fold change vs veh, ZNF655 / RFU, FAHD1 / Fold change vs veh, FAHD1 / RFU, BDP1 / Fold change vs veh, BDP1 / RFU, LRRCC1 / Fold change vs veh, LRRCC1 / RFU, ARID1A / Fold change vs veh, ARID1A / RFU, ZNF146 / Fold change vs veh, ZNF146 / RFU, ZNF330 / Fold change vs veh, ZNF330 / RFU, GPN3 / Fold change vs veh, GPN3 / RFU, C9orf123 / Fold change vs veh, C9orf123 / RFU, N4BP2L2 / Fold change vs veh, N4BP2L2 / RFU, ARFIP1 / Fold change vs veh, ARFIP1 / RFU, FAM179B / Fold change vs veh, FAM179B / RFU, BCL10 / Fold change vs veh, BCL10 / RFU, UHRF1BP1L / Fold change vs veh, UHRF1BP1L / RFU, BET1 / Fold change vs veh, BET1 / RFU, CNOT2 / Fold change vs veh, CNOT2 / RFU, ZNF268 / Fold change vs veh, ZNF268 / Fold change vs veh, ZNF507 / RFU, DGCR2 / Fold change vs veh, DGCR2 / RFU, WDSUB1 / Fold change vs veh, WDSUB1 / Fold change vs veh, HSP90B1 /// MIR3652 / RFU, ADSS / Fold change vs veh, ADSS / RFU, GK / Fold change vs veh, GK / RFU, ZNF148 / Fold change vs veh, ZNF148 / RFU, TAF9 / Fold change vs veh, TAF9 / RFU, SLC1A5 / Fold change vs veh, SLC1A5 / RFU, SLMO2 / Fold change vs veh, SLMO2 / RFU, ABCC4 / Fold change vs veh, ABCC4 / RFU, LOC101060439 /// RAP1B / Fold change vs veh, LOC101060439 /// RAP1B / RFU, RFX7 / Fold change vs veh, RFX7 / RFU, GTPBP10 / Fold change vs veh, GTPBP10 / RFU, CNEP1R1 / Fold change vs veh, CNEP1R1 / RFU, BIVM-ERCC5 /// ERCC5 / Fold change vs veh, BIVM-ERCC5 /// ERCC5 / RFU, ILF3 / Fold change vs veh, ILF3 / RFU 11762660_at / Fold change /veh 11762660_at / RFU VCAN (11757783_s_at) / Fold change /veh VCAN (11757783_s_at) / RFU DDX43 (11728927_at) / Fold change /veh DDX43 (11728927_at) / RFU KRT8 (11758188_x_at) / Fold change /veh KRT8 (11758188_x_at) / RFU NKD1 (11759106_at) / Fold change /veh NKD1 (11759106_at) / RFU SRD5A1 (11742802_a_at) / Fold change /veh SRD5A1 (11742802_a_at) / RFU TPSAB1 /// TPSB2 (11721975_s_at) / Fold change /veh TPSAB1 /// TPSB2 (11721975_s_at) / RFU GSTM3 (11746129_a_at) / Fold change /veh GSTM3 (11746129_a_at) / RFU IL23R (11737362_x_at) / Fold change /veh IL23R (11737362_x_at) / RFU TMEM51 (11727254_a_at) / Fold change /veh TMEM51 (11727254_a_at) / RFU PIWIL2 (11732686_x_at) / Fold change /veh PIWIL2 (11732686_x_at) / RFU ORM1 (11744905_x_at) / Fold change /veh ORM1 (11744905_x_at) / RFU CCDC152 (11743942_at) / Fold change /veh CCDC152 (11743942_at) / RFU ECM1 (11717891_a_at) / Fold change /veh ECM1 (11717891_a_at) / RFU IL23R (11748794_a_at) / Fold change /veh IL23R (11748794_a_at) / RFU TNFAIP8L3 (11732012_x_at) / Fold change /veh TNFAIP8L3 (11732012_x_at) / RFU MBOAT4 (11741988_at) / Fold change /veh MBOAT4 (11741988_at) / RFU 11764193_at / Fold change /veh 11764193_at / RFU TMEM53 (11763286_at) / Fold change /veh TMEM53 (11763286_at) / RFU MAGEB2 (11727129_at) / Fold change /veh MAGEB2 (11727129_at) / RFU TMEM200A (11744735_a_at) / Fold change /veh TMEM200A (11744735_a_at) / RFU CCDC152 (11751479_a_at) / Fold change /veh CCDC152 (11751479_a_at) / RFU FAM211A (11726209_a_at) / Fold change /veh FAM211A (11726209_a_at) / RFU RGS16 (11746705_a_at) / Fold change /veh RGS16 (11746705_a_at) / RFU VCAN (11755009_s_at) / Fold change /veh VCAN (11755009_s_at) / RFU RHOB (11743442_s_at) / Fold change /veh RHOB (11743442_s_at) / RFU RGS16 (11720943_a_at) / Fold change /veh RGS16 (11720943_a_at) / RFU RGS16 (11720944_at) / Fold change /veh RGS16 (11720944_at) / RFU, VPS4B / Fold change vs veh, VPS4B / RFU, CREB1 / Fold change vs veh, CREB1 / RFU, DNAJC13 / Fold change vs veh, DNAJC13 / RFU, GNAQ / Fold change vs veh, GNAQ / RFU, CDK5R1 / Fold change vs veh, CDK5R1 / RFU, ZRANB3 / Fold change vs veh, ZRANB3 / RFU, CUL4A / Fold change vs veh, CUL4A / RFU, CCNY / Fold change vs veh, CCNY / RFU, UFL1 / Fold change vs veh, UFL1 / RFU, COG3 / Fold change vs veh, COG3 / RFU, DIAPH2 / Fold change vs veh, DIAPH2 / RFU, SKA2 / Fold change vs veh, SKA2 / RFU, AFF3 / Fold change vs veh, AFF3 / RFU, LMF1 / Fold change vs veh, LMF1 / RFU, IPO11 / Fold change vs veh, IPO11 / RFU, DFFB / Fold change vs veh, DFFB / RFU, FOXP1 / Fold change vs veh, FOXP1 / RFU, CARD8 / Fold change vs veh, CARD8 / RFU, STRN3 / Fold change vs veh, STRN3 / RFU, ADK / Fold change vs veh, ADK / RFU, RASSF2 / Fold change vs veh, RASSF2 / RFU, WIPF1 / Fold change vs veh, WIPF1 / RFU, LARP1B / Fold change vs veh, LARP1B / RFU, RASA1 / Fold change vs veh, RASA1 / RFU, RB1 / Fold change vs veh, RB1 / RFU, PPFIA1 / Fold change vs veh, PPFIA1 / RFU, MAT2A / Fold change vs veh, MAT2A / RFU, CCT5 / Fold change vs veh, CCT5 / RFU, WDR92 / Fold change vs veh, WDR92 / RFU, CUX1 / Fold change vs veh, CUX1 / RFU, TTC7A / Fold change vs veh, TTC7A / RFU, TMEM135 / Fold change vs veh, TMEM135 / RFU, DEPTOR / Fold change vs veh, DEPTOR / RFU, CPM / Fold change vs veh, CPM / RFU, DNAJB6 / Fold change vs veh, DNAJB6 / RFU, CACNA2D3 / Fold change vs veh, CACNA2D3 / RFU, DTX4 / Fold change vs veh, DTX4 / RFU, TFCP2 / Fold change vs veh, TFCP2 / RFU, GMCL1 /// GMCL1P1 / Fold change vs veh, GMCL1 /// GMCL1P1 / RFU, AEBP2 / Fold change vs veh, AEBP2 / RFU, SNHG1 /// SNORD22 /// SNORD25 /// SNORD26 /// SNORD27 /// SNORD28 /// SNORD29 /// SNORD31 / Fold change vs veh, SNHG1 /// SNORD22 /// SNORD25 /// SNORD26 /// SNORD27 /// SNORD28 /// SNORD29 /// SNORD31 / Fold change (Aza/veh), C12orf56 (ProbeSet 11735607_a_at) / Fold change (ACY-1035/veh), C12orf56 (ProbeSet 11735607_a_at) / Fold change (Aza/veh), FGFR1OP (ProbeSet 11751329_s_at) / Fold change (ACY-1035/veh), FGFR1OP (ProbeSet 11751329_s_at) / Fold change (Aza/veh), VPS36 (ProbeSet 11739960_a_at) / Fold change (ACY-1035/veh), VPS36 (ProbeSet 11739960_a_at) / RFU SYPL1 (11715823_x_at) / Fold change /veh SYPL1 (11715823_x_at) / RFU IGFBP7 (11715501_s_at) / Fold change /veh IGFBP7 (11715501_s_at) / RFU REEP3 (11722064_at) / Fold change /veh REEP3 (11722064_at) / RFU IGLL1 (11728026_x_at) / Fold change /veh IGLL1 (11728026_x_at): dose or concentration left out as unconfirmed
Conditions: MV-4-11 cells, 48 hours

SMILES: Nc1ncn([C@@H]2O[C@H](CO)[C@@H](O)[C@H]2O)c(=O)n1 [azacitidine]
- RFU ZSCAN30 (11745921_a_at): 8.95 RFU
